# From patent publication US6069235A, “Method for carbohydrate engineering of glycoproteins” (Monsanto Company, priority 1994, dated 2000)
# Columns and labels:
# glucosidase I = biological target: T1, glucosidase I (Cricetulus griseus, UniProt A0A9J7K0I4); experiment: Endo H sensitivity of hsCD2 secreted by transfected CHO-K1 cells (line 2.14) cultured with NB-DNJ; format: cell-based, Chinese hamster
# T1 construct: endogenous in cells; host or cells: CHO-K1, transfected line 2.14 (the transfected gene is hsCD2, not glucosidase I)
# T1 sequence (A0A9J7K0I4 1-834): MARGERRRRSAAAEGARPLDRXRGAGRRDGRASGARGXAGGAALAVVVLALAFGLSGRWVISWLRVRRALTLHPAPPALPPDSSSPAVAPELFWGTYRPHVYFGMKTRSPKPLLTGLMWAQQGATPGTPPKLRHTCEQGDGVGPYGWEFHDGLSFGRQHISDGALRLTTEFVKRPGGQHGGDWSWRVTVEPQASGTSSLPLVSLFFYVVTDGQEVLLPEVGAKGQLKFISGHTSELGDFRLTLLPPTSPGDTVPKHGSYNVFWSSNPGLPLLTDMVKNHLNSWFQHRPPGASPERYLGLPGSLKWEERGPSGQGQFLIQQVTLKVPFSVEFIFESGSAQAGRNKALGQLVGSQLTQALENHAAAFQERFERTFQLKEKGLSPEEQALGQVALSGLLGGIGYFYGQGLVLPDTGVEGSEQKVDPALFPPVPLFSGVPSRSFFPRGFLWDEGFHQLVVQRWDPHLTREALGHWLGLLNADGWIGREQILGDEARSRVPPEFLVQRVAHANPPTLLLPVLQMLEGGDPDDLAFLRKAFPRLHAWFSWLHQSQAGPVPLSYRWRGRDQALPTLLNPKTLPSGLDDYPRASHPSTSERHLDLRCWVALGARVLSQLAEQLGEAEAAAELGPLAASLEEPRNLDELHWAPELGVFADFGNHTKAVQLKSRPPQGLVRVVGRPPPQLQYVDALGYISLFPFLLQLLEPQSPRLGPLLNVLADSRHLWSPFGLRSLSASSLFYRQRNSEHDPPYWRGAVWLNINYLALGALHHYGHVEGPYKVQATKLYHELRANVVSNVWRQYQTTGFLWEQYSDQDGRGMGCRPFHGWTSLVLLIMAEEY
# Experimental: In initial optimization tests with NB-DNJ, 2×500 cm^2 flasks (Nunc) were seeded with line 2.14 cells in 75 ml glutamine-free medium GMEM-S (Gibco Ltd, Glasgow, U.K.) 10% Fetal Calf Serum (FCS) containing NB-DNJ at 0 mM, 0.5 mM, 1 mM, 1.5 mM or 2 mM. After 6 days 100 mls of CB2, 10% FCS containing sodium butyrate to give a final concentration of 2 mM and NB-DNJ at 0, 0.5 mM, 1 mM, 1.5 mM or 2 mM was added. Ten days after the addition of the butyrate, 0.5 ml samples of the supernatant were taken for comparison of secretion levels. The cultures were left for a total of 15 days before harvesting the supernatants. When large amounts of endo H treated hsCD2 were required for crystallization, the cells were grown to confluence in cell factories as described above and NB-DNJ was added with the sodium butyrate to a final concentration of 1.5 mM. These cultures were also left for a further 3-4 weeks prior to harvesting.
# For analysis of endo H sensitivity after preparation of the hsCD2 in the presence of various concentrations of NB-DNJ, 10 μg aliquots of the purified glycoproteins were incubated with 4, 20 or 100 mU/ml endo H-(Boehringer Mannheim) in 30 μl of 100 mM sodium acetate, pH 5.2. One unit (U) of endo H is the enzyme activity which hydrolyzes one micromole […] of dansyl-Asn-(GlcNAc)2 -(Man)5 within one minute at 37° C., pH 5.5. After incubation overnight at 370 the digested samples were boiled in 1% SDS under reducing conditions prior to electrophoresis in 15% SDS-PAGE gels. For large-scale endo H treatment of hsCD2 for crystallization tests, 4 mgs of the purified glycoprotein was concentrated to 1-2 mg/ml in 0.1 M sodium acetate, pH 5.2, and then digested with 100 mU/ml endo H overnight at 370. […] The eluting protein was determined to be essentially free of contaminating hsCD2 bearing non-endo H sensitive oligosaccharides by SDS-PAGE on a 15% acrylamide gel. […]
# [1] = test system: CHO-K1 line 2.14 cells secreting hsCD2; experiment: Quantitative assay of hsCD2 expression level in line 2.14 cells cultured with NB-DNJ; format: cell-based, Chinese hamster; conditions: 0.5-2 mM NB-DNJ
# Experimental: For the expression of hsCD2, the Xba I-Bam H1 fragment was sub-cloned into the polylinker of pEE6.hcmv-GS (Bebbington and Hentschel, 1987; Davis et al., 1990). The expression construct (20 μg) was transfected with calcium phosphate into CHO-K1 cells and methionine sulfoximine-resistant clones were selected as described previously (Davis et al., 1990). To detect expression the conventional solid-phase, radioactive inhibition binding assay (Barclay and Ward, 1982) was used. This utilized human sCD2 domain 1 expressed as a fusion protein as described for rat CD2 domain 1 (Driscoll et al., 1991) adsorbed onto vinyl microtitre plates as a binding target and monitored inhibition of the binding of the anti-human CD2 mAb, X3 mAb to the plate; the bound mAb was detected with [I^125 ]-labelled rabbit anti-mouse F(ab'). For large scale production the highest-expressing cell line (line 2.14) was grown to confluence in cell factories (Nunc) and sodium butyrate was then added to a final concentration of 2 mM. The cultures were then left for a further 3-4 weeks prior to harvesting.
# In initial optimization tests with NB-DNJ, 2×500 cm^2 flasks (Nunc) were seeded with line 2.14 cells in 75 ml glutamine-free medium GMEM-S (Gibco Ltd, Glasgow, U.K.) 10% Fetal Calf Serum (FCS) containing NB-DNJ at 0 mM, 0.5 mM, 1 mM, 1.5 mM or 2 mM. […]
smiles,measurement,setting,value
"CCCCN1C[C@H](O)[C@@H](O)[C@H](O)[C@H]1CO [NB-DNJ, N-butyl deoxynojirimycin]",oligosaccharides of hsCD2 converted to endo H sensitive structures,glucosidase I; N-butyldeoxynojirimycin added to cultures of non-mutant CHO cells,> 85%
same,inhibition of glucosidase I (judged by endo H sensitivity of hsCD2),glucosidase I; NB-DNJ 1.5 mM in culture of line 2.14 CHO cells,complete
same,hsCD2 remaining endo H resistant (densitometric analysis of gel),glucosidase I; highest concentration of NB-DNJ (2 mM),approximately 15%
same,reduction in expression of hsCD2,[1],three- to four-fold reduction in expression
